ChEMBL document CHEMBL1131573, “Potent dipeptide inhibitors of the pp60c-src SH2 domain” (J Med Chem, 1998)
Square brackets hold non-standard residues; d marks the D form. Peptide text beside a SMILES is read from it. pY = N[C@@H](Cc1ccc(OP(=O)(O)O)cc1)C(=O)O; Ahp = NCCCCCCC(=O)O

Experiment: Binding affinity against c-Src tyrosine kinase SH2 domain expressed as ratio of IC50 of test compound over IC50 of AcYEEIE

SMILES	Ratio
CCCCCN(CCCCC)C(=O)[C@H](CCC(=O)O)NC(=O)[C@H](Cc1ccc(OP(=O)(O)O)cc1)NC(=O)c1ccc(Cl)cc1	39
CCCCCN(CCCCC)C(=O)[C@H](CCC(=O)O)NC(=O)[C@H](Cc1ccc(OP(=O)(O)O)cc1)NC(=O)CCc1ccc(O)cc1	26.7
CCCCCCN(CCCCCC)C(=O)[C@H](CCC(=O)O)NC(=O)[C@H](Cc1ccc(OP(=O)(O)O)cc1)NC(C)=O	24
CCCCCCCN(CCCCCCC)C(=O)[C@H](CCC(=O)O)NC(=O)[C@H](Cc1ccc(OP(=O)(O)O)cc1)NC(C)=O	327
CCCCCN(CCCCC)C(=O)[C@H](CCC(=O)O)NC(=O)[C@H](Cc1ccc(OP(=O)(O)O)cc1)NC(=O)c1ccccc1	15.3
CCCCCN(CCCCC)C(=O)[C@H](CCC(=O)O)NC(=O)[C@H](Cc1ccc(OP(=O)(O)O)cc1)NC(=O)Cc1ccccc1	16.5
CCCCCN(CCCCC)C(=O)[C@H](CSC)NC(=O)[C@H](Cc1ccc(OP(=O)(O)O)cc1)NC(C)=O	33.1
CCCCCN(CCCCC)C(=O)[C@H](CCS(C)(=O)=O)NC(=O)[C@H](Cc1ccc(OP(=O)(O)O)cc1)NC(C)=O	75.3
CCCCCN(CCCCC)C(=O)[C@H](CCC(=O)O)NC(=O)[C@H](Cc1ccc(OP(=O)(O)O)cc1)NC(=O)c1ccc([N+](=O)[O-])cc1	5.7
CC(=O)N[C@@H](Cc1ccc(OP(=O)(O)O)cc1)C(=O)N[C@@H](CCC(=O)O)C(=O)N(C)CCCCCCCCO	2.2
CCCCCN(CCC(=O)OCC)C(=O)[C@H](CCC(=O)O)NC(=O)[C@H](Cc1ccc(OP(=O)(O)O)cc1)NC(C)=O	26
CC(=O)N[C@@H](Cc1ccc(OP(=O)(O)O)cc1)C(=O)N[C@@H](CCC(=O)O)C(=O)NCCCCCCC(=O)O (Ac-[pY]-Glu-[Ahp]-OH)	36.7
CC(=O)N[C@@H](Cc1ccc(OP(=O)(O)O)cc1)C(=O)N[C@@H](CCC(=O)O)C(=O)N(C)CCCc1c[nH]c2ccccc12	11.6
CCCCCN(CCC(=O)O)C(=O)[C@H](CCC(=O)O)NC(=O)[C@H](Cc1ccc(OP(=O)(O)O)cc1)NC(C)=O	48
CCCCCN(CCO)C(=O)[C@H](CCC(=O)O)NC(=O)[C@H](Cc1ccc(OP(=O)(O)O)cc1)NC(C)=O	16.7
CCCCCN(CCCCC)C(=O)[C@H](CCC(=O)O)NC(=O)[C@H](Cc1ccc(OP(=O)(O)O)cc1)NC(=O)Cc1ccc(CN)cc1	92.1
CCCCCN(CCCCC)C(=O)[C@H](CCC(=O)O)NC(=O)[C@H](Cc1ccc(OP(=O)(O)O)cc1)NC(=O)Nc1ccc(OC)cc1	13.5
CCCCCN(CCCCC)C(=O)[C@H](CCC(=O)O)NC(=O)[C@H](Cc1ccc(OP(=O)(O)O)cc1)NC(=O)c1ccc(OC)cc1	7.2
CCCCCN(CCCCC)C(=O)[C@H](CCSC)NC(=O)[C@H](Cc1ccc(OP(=O)(O)O)cc1)NC(C)=O	16.5
CC(=O)N[C@@H](Cc1ccc(OP(=O)(O)O)cc1)C(=O)N[C@@H](CCC(=O)O)C(=O)N(C)CCCCCCCO	3.6
COc1ccc2[nH]cc(CCNC(=O)[C@H](CCC(=O)O)NC(=O)[C@H](Cc3ccc(OP(=O)(O)O)cc3)NC(C)=O)c2c1	29.7

SMILES	Ratio
CCCCCNC(=O)[C@H](CCC(=O)O)NC(=O)[C@H](Cc1ccc(OP(=O)(O)O)cc1)NC(C)=O	16.6
CCCCCN(CCCCC)C(=O)[C@H](CCC(=O)O)NC(=O)[C@H](Cc1ccc(OP(=O)(O)O)cc1)NC(=O)Nc1ccc([N+](=O)[O-])cc1	184
CC(=O)N[C@@H](Cc1ccc(OP(=O)(O)O)cc1)C(=O)N[C@@H](CCC(=O)O)C(=O)N(C)CCCCCCO	6.4
CCCCCN(CCCCC)C(=O)[C@H](CCC(=O)O)NC(=O)[C@H](Cc1ccc(OP(=O)(O)O)cc1)NC(=O)Nc1ccc(N)cc1	26.9
CC(=O)N[C@@H](Cc1ccc(OP(=O)(O)O)cc1)C(=O)N[C@@H](CCC(=O)O)C(=O)O (Ac-[pY]-Glu-OH)	606
CCCCCN(CCCCC)C(=O)[C@H](CCC(=O)O)NC(=O)[C@H](Cc1ccc(OP(=O)(O)O)cc1)NC(=O)CCc1cccnc1	17.7
CCCCCN(CCCCC)C(=O)[C@H](CCC(=O)O)NC(=O)[C@H](Cc1ccc(OP(=O)(O)O)cc1)NC(=O)C(F)(F)F	57.2
CC(=O)N[C@@H](Cc1ccc(OP(=O)(O)O)cc1)C(=O)N[C@@H](CCC(=O)O)C(N)=O (Ac-[pY]-Glu-NH2)	200
CCCCCN(CCCCC)C(=O)[C@H](CCC(=O)O)NC(=O)[C@H](Cc1ccc(OP(=O)(O)O)cc1)NC(=O)CSc1ccccc1	17.7
CCCCCN(CCCCC)C(=O)[C@H](CCC(=O)O)NC(=O)[C@H](Cc1ccc(OP(=O)(O)O)cc1)NC(=O)c1ccc(C(F)(F)F)cc1	25.4
CC(=O)N[C@@H](Cc1ccc(OP(=O)(O)O)cc1)C(=O)N[C@@H](CCC(=O)O)C(=O)N(C)CCc1c[nH]c2ccccc12	31.8
CCCCCN(CCCCC)C(=O)[C@H](CCC(=O)O)NC(=O)[C@H](Cc1ccc(OP(=O)(O)O)cc1)NC(=O)COCc1ccccc1	32.7
CCCCCN(CCCCC)C(=O)[C@H](CSCc1ccccc1)NC(=O)[C@H](Cc1ccc(OP(=O)(O)O)cc1)NC(C)=O	155
CCCCCN(CCCCC)C(=O)[C@H](CCC(=O)O)NC(=O)[C@H](Cc1ccc(OP(=O)(O)O)cc1)NC(=O)OCc1ccccc1	79.7
CC(=O)N[C@@H](Cc1ccc(OP(=O)(O)O)cc1)C(=O)N[C@@H](CCC(=O)O)C(=O)NCCc1c[nH]c2ccc(O)cc12	31.5
CCCCCN(CCCCC)C(=O)[C@H](CCC(=O)O)NC(=O)[C@H](Cc1ccc(OP(=O)(O)O)cc1)NC(=O)CCc1ccccc1	10.8
CCCCCN(CCCCC)C(=O)[C@H](CCC(=O)O)NC(=O)[C@H](Cc1ccc(OP(=O)(O)O)cc1)NC(=O)CCCc1ccccc1	27.2
CC(=O)N[C@@H](Cc1ccc(OP(=O)(O)O)cc1)C(=O)N[C@@H](CCC(=O)O)C(=O)N(C)CCCc1c(C(N)=O)[nH]c2ccccc12	9.3
CCCCCN(CCCCC)C(=O)[C@H](CCC(=O)O)NC(=O)[C@H](Cc1ccc(OP(=O)(O)O)cc1)NC(=O)CSCc1ccccc1	18.9
CC(=O)N[C@@H](Cc1ccc(OP(=O)(O)O)cc1)C(=O)N[C@@H](CCC(=O)O)C(=O)NCCCCCCC(N)=O (Ac-[pY]-Glu-[Ahp]-NH2)	115
CCCCCN(C)C(=O)[C@H](CCC(=O)O)NC(=O)[C@H](Cc1ccc(OP(=O)(O)O)cc1)NC(C)=O	12
